Source: patent publication US20090123488A1, “Compositions and methods for the treatment and prophylaxis of Alzheimer's disease” (priority 2006, published 2009)

What was measured:
synthetic Aβ40 = experiment: Effect of booster doses: mouse serums titered on synthetic Aβ40; format: in vivo; conditions: three mice
Description: After immunizations with the immunogens of Example 1, serums were assayed to determine anti-Aβ peptide titers by conventional ELISA methods. […] After thorough washing with 0.1% triton X 100 buffer, blocking with 1% bovine serum albumin (BSA) and rewashing, serum dilutions were applied and incubated at 22° C. for 1 hour. After incubation, the plates were thoroughly washed with triton-X 100 buffer again and 1/10,000 goat anti-mouse IgG-horseradish peroxidase (HRP) conjugate (or the appropriate reagent for rat or rabbit) was applied. The plates were then incubated for 1 hour at 22° C. then washed thoroughly and developed with ABTS for 45 minutes at room temperature on a shaker table. Absorbance was measured at 405 nm. Control wells containing 1/60000 normal mouse serum were measured; and the reciprocal of the […] dilution of test serums with an OD greater than the mean+8 SDs of controls was taken as the titer.
In an experiment to determine the effect of booster dosages, three mice were immunized with experimental immunogen, Pam2C-SSQYIKANSKFIGITELDAEFRHDSGYEVHHQ-amide (SEQ ID NO: 13) in a protocol of a 1 mg intraperitoneal (IP) priming dose at Day 0, followed by a 1 mg IP booster at Week 3, and a 1 mg IP second booster at Week 6. Mice were bled at weeks 5 and 8. The serums are titered on synthetic Aβ40. […]

amyloid-β = conditions: mice, alum adjuvant, five boosts (Agadjanyan et al 2005); cited from earlier work
Aβ40 = conditions: immunized mice (Agadjanyan et al 2005); cited from earlier work
Aβ40, sequence (P05067 672-711): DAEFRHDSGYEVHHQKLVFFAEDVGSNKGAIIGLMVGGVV

Substance	GMT at 5 weeks (synthetic Aβ40; 1 mg IP Day 0, boosters Week 3 and Week 6, bled week 5)	GMT at 8 weeks (synthetic Aβ40; 1 mg IP Day 0, boosters Week 3 and Week 6, bled week 8)	maximal titer (amyloid-β)	T cell response to Aβ40 (Aβ40)
Pam2C-SSQYIKANSKFIGITELDAEFRHDSGYEVHHQ-amide [Pam2-QYIK-AB1-15]	3 million	8 million		
Aβ33-MAP: Aβ33 synthesized as a multiple antigenic peptide (Agadjanyan et al 2005)			64,000	demonstrable T cell response
